According to patent US20230058160A1, “METABOLITE-BASED POLYMERS, MICROPARTICLES, AND NANOPARTICLES FOR IMMUNOTHERAPY AND METHODS OF TREATING A DISEASE OR DISORDER” (priority 2020, published 2023):
Entries after “also recorded” stand apart in the source; their conditions may differ.

Columns and labels:
YUMM1.1 cells = test: MTT cell viability assay, YUMM1.1 melanoma cells; assay type: cell-based, mouse
Procedure: (§1) In order to determine if PFK15 prevents melanoma cell growth in vitro, two different mouse melanoma cells were utilized, namely YUMM1.1 (BrafV600E/wt, Pten−/− Cdkn2−/−MHClHi) and B16F10. Specifically, YUMM1.1 and B16F10 cells were cultured with different concentrations of […], and the percentage cell viability was determined using MTT assay.
as §1, with “if […]” for “if PFK15”, “YUMM1.1” for “YUMM1.1 (BrafV600E/wt, Pten−/− Cdkn2−/−MHClHi)”

[1] = system: bone marrow derived dendritic cells; test: Dendritic cell activation by flow cytometry (MHCII, CD86, CD11c); assay type: cell-based, C57BL/6j mice; settings: for DC activation (CD86+ and MHCII+CD86+ populations in CD11c+ DCs), inhibitor alone: 200 nM PFK15 or 30 nM CB-839; for concentration that prevented the activation of DCs: 24 hours incubation, MHCII, CD86, CD11c staining
Procedure: In order to test the effect of PFKFB3 inhibition on DC and T cell activation, PFK15 was employed. Specifically, DCs were isolated from bone marrow of C57BL/6j mice using GM-CSF, and incubated with different concentrations of PFK15 (50, 100, 200, 400, 800, 1600 nM) for 24 hours. These cells were then stained for MHCII, CD86 and CD 11c to determine activation profile. It was observed that at 200 nM and higher concentrations of PFK15 prevented the activation of DCs (FIG. 3—200 nM shown as example).
In order to test the effect of glutaminase inhibition on DC activation, bone marrow DCs were isolated from C57BL/6j mice and cultured with different concentrations of CB-839, a clinically validated molecule (0, 15, 30, 60, 120 nM) for 24 hours. These cells were then stained for MHCII, CD86, and CD11c to determine activation profile. It was observed that at 30 nM and higher concentrations of CB-839 prevented the activation of DCs (FIG. 11—30 nM is shown as a representative example).
Specifically, DCs were cultured in the presence of CB-839 with or without PEGS (0.1 mg/mL) and with or without LPS (0.1 μg/mL) for 24 hours. Cells were then stained for MHC-II, CD86 and CD11c and analyzed using flow cytometry.

DCs = test: Seahorse ECAR/OCR of dendritic cells (glycolysis stress test); assay type: cell-based, C57BL/6j mice
Procedure: In order to test if F16BP particles can rescue DCs from exhaustion when cultured in the presence of PFK15, ECAR using Seahorse assays was utilized. Specifically, DCs were cultured with either PFK 15 (200 nM), F16BP (0.1 mg/mL) or PFK15+F16BP with or without LPS and ECAR measurements were obtained.
Specifically, immature DCs were obtained from C57BL/6j mice and cultured with PEGS (0.1 mg/mL) with or without CB-839 (30 nM or 240 nM) for 16 hours. After 16 hours of incubation, DCs were incubated in glucose free medium and ECAR and OCR values were recorded using Seahorse extracellular flux (XF) analyzer (glucose addition at 20 min).

B16F10 cells = test: MTT cell viability assay, B16F10 melanoma cells; assay type: cell-based, mouse
Procedure: as §1
as §1, with “if […]” for “if PFK15”, “YUMM1.1” for “YUMM1.1 (BrafV600E/wt, Pten−/− Cdkn2−/−MHClHi)”

YUMM1.1 tumors = test: YUMM1.1 tumor model in mice; assay type: in vivo
Procedure: In order to determine if the injection of F16BP particles in vivo can lead to longer survival in mice, study design shown in FIG. 7A and FIG. 7B was followed.
In order to test the efficacy of F16BP particles-based vaccines to reduce tumor growth in mice, C57BL/6j mice were utilized. Specifically, tumors were induced by injecting 0.75×10^6 cells in the back of the mice. From day 18 onwards, mice were injected with the F16BP based vaccines injected subcutaneously (0.5 mg/mouse) every 3 days (total 3 treatments—days 21, 24, 27) with PFK15 (5 mg/kg) injected every other day intraperitoneally (FIG. 7A—same study design as survival but mice euthanized day 28 for T cell analyses). Controls included PFK15 injections every alternate day, or no treatment. Mice were then sacrificed on day 26 and the tumors, draining lymph nodes, and non-draining contralateral lymph nodes were harvested.

| IC50 (YUMM1.1 cells; Mus musculus, MTT assay, percentage cell viability, read-out: IC50 to prevent proliferation of YUMM1.1 cells) | Structure (SMILES) | DC activation (CD86+ and MHCII+CD86+ populations in CD11c+ DCs), inhibitor alone [1] | concentration that prevented the activation of DCs [1] | glycolysis and mitochondrial respiration in DCs (ECAR and OCR), CB-839 alone (DCs; 30 nM CB-839, 16 hours) | killing of YUMM1.1 cells in vitro (YUMM1.1 cells) | IC50 of YUMM1.1 melanoma cells using PFK-15 (FIG. 6B) (YUMM1.1 cells; MTT assay, n=6) | killing of B16F10 cells in vitro (B16F10 cells) | DC activation (CD86+ and MHCII+CD86+ populations in CD11c+ DCs), inhibitor alone ([1]; listed as PFK-15) | ECAR of DCs, PFK15 without LPS (DCs; PFK15 200 nM without LPS) | tumor burden / tumor growth (YUMM1.1 tumors; F16BP vaccine 0.5 mg/mouse s.c., PFK15 5 mg/kg i.p., vs PFK15 alone and no treatment) | improvement of survival of mice (YUMM1.1 tumors; PFK15 5 mg/kg intraperitoneally every other day) |
| --- | --- | --- | --- | --- | --- | --- | --- | --- | --- | --- | --- |
| 3.75 nM | O=C(Cc1cccc(OC(F)(F)F)c1)Nc1ccc(CCCCc2nnc(NC(=O)Cc3ccccn3)s2)nn1 [CB-839] | significantly reduces activation in DCs | ≥ 30 nM | block glycolysis and mitochondrial respiration; also recorded: do not upregulate glycolysis or mitochondrial respiration |  |  |  |  |  |  |  |
|  | O=C(/C=C/c1ccc2ccccc2n1)c1ccncc1 [PFK15] | significantly reduces activation in DCs | ≥ 200 nM |  | able to kill | 5000 nM | able to kill | downregulated | even lower than the no treatment control | significant improvements in tumor burden | 15 days |
